# Data: US8461162B2, “Pyrazolo[1,5-a]pyrimidine derivatives” (Merck Sharp & Dohme Corp., priority 2007, dated 2013)
# Biological target: T1, recombinant MARK3 enzyme (Homo sapiens, UniProt P27448)
# T1 construct: purchased University of Dundee
# Assay: MARK 3 Assay (HTRF, Cdc25C biotinylated peptide substrate)
# Type: biochemical
# Details: 10 μM ATP, 2 hours at 25° C.
# Protocol: MARK3 activity was assayed in vitro using a Cdc25C biotinylated peptide substrate (Cell Signalling Technologies). The phosphopeptide product was quantitated using a Homogenous Time-Resolved Fluorescence (HTRF) assay system (Park et al., 1999, Anal. Biochem. 269:94-104). The reaction mixture contained 50 mM HEPES/Tris-HCl, pH 7.4; 10 mM NaCl, 5 mM MgCl2, 0.2 mM NaVO4, 5 mM β-glycerol phosphate, 0.1% Tween-20, 2 mM dithiothreitol, 0.1% BSA, 10 μM ATP, 1 μM peptide substrate, and 10 nM recombinant MARK3 enzyme (University of Dundee) in a final volume of 12 μl. The buffer additionally contained protease inhibitor cocktail (Roche EDTA-free, 1 tab per 50 ml). The kinase reaction was incubated for 2 hours at 25° C., and then terminated with 3 μl Stop/Detection Buffer (50 mM HEPES, pH 7.0, 16.6 mM EDTA, 0.5M KF, 0.1% Tween-20, 0.1% BSA, 2 μg/ml SLX^ent 665 (CISBIO), and 2 μg/ml Eu^3+ cryptate label antibody (CISBIO)). The reaction was allowed to equilibrate overnight at 0° C., and relative fluorescent units were read on an HTRF enabled plate reader (e.g. TECAN GENios Pro).
# Inhibitor compounds were assayed in the reaction described above to determine compound IC50s. Aliquots of compound dissolved in DMSO were added to the reaction wells in a third-log dilution series covering a range of 1 nM to 10 μM. Relative phospho substrate formation, read as HTRF fluorescence units, was measured over the range of compound concentrations and a titration curve generated.
# T1 sequence (P27448 whole entry, species assumed): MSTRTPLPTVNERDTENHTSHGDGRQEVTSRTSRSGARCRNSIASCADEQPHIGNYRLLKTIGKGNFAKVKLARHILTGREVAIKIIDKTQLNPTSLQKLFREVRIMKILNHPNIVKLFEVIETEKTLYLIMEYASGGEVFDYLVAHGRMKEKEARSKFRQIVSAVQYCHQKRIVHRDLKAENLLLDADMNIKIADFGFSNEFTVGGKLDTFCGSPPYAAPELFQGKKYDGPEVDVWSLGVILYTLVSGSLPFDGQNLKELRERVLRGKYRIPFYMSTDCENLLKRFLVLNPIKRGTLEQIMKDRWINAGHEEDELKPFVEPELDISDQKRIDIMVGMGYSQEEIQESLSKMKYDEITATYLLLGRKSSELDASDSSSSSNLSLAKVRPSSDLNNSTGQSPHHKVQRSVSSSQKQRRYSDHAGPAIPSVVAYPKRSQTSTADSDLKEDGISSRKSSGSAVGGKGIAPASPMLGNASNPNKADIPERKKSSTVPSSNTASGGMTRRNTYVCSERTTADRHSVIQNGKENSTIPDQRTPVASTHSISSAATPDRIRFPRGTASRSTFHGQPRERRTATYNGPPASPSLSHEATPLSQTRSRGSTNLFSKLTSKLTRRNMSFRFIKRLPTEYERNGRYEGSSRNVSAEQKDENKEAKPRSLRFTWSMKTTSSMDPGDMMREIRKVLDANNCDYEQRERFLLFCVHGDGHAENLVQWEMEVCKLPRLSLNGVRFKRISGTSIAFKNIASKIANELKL
row,Structure (SMILES),IC50
1,"O=C(NCc1nccs1)c1cc(-c2cnn3cc(-c4cccnc4)cnc23)cs1 [Example 184, 4-(6-pyridin-3-ylpyrazolo[1,5-a]pyrimidin-3-yl)-N-(1,3-thiazol-2-ylmethyl)thiophene-2-carboxamide]",607 nM
2,"Cn1cc(-c2cnc3c(-c4ccc(C(=O)N[C@@H]5CCCC[C@@H]5N)cc4)cnn3c2)cn1 (stereo in doubt) [Example 219, N-[2-aminocyclohexyl]-4-[6-(1-methyl-1H-pyrazol-4-yl)pyrazolo[1,5-a]pyrimidin-3-yl]benzamide]",127 nM
3,"O=C(NCC(F)(F)F)c1cc(-c2cnn3cc(-c4ccc(N5CCOCC5)nc4)cnc23)cs1 [Example 50, 4-[6-(6-morpholin-4-ylpyridin-3-yl)pyrazolo[1,5-a]pyrimidin-3-yl]-N-(2,2,2-trifluoroethyl)thiophene-2-carboxamide]",35 nM
4,"Cc1sc(C(=O)N[C@@H]2[C@H](N)CCCC2(F)F)cc1-c1cnn2cc(-c3cnn(C)c3)cnc12 [Example 202, N-[(1R,6R)-6-amino-2,2-difluorocyclohexyl]-5-methyl-4-[6-(1-methyl-1H-pyrazol-4-yl)pyrazolo[1,5-a]pyrimidin-3-yl]thiophene-2-]",< 0.3 nM
5,"Cn1cc(-c2cnc3c(-c4nc(C(=O)NCC(F)(F)F)sc4Cl)cnn3c2)cn1 [Example 205, 5-chloro-4-[6-(1-methyl-1H-pyrazol-4-yl)pyrazolo[1,5-a]pyrimidin-3-yl]-N-(2,2,2-trifluoroethyl)-1,3-thiazole-2-carboxamide]",60 nM
6,"O=C(NCC(F)(F)F)c1cc(-c2cnn3cc(-c4ccn(CCCN5CCC(F)(F)C5)c(=O)c4)cnc23)cs1 [Example 8, 4-(6-{1-[3-(3,3-difluoropyrrolidin-1-yl)propyl]-2-oxo-1,2-dihydropyridin-4-yl}pyrazolo[1,5-a]pyrimidin-3-yl)-N-(2,2,2-trifluoroethyl)thiophene-2-carboxamide]",158 nM
7,"CC(C)[C@@H](NC(=O)c1cc(-c2cnn3cc(-c4ccc(NCC(C)(C)O)nc4)cnc23)cs1)C(F)(F)F [Example 49, 4-(6-{6-[(2-hydroxy-2-methylpropyl)amino]pyridin-3-yl}pyrazolo[1,5-a]pyrimidin-3-yl)-N-[(1R)-2-methyl-1-(trifluoromethyl)propyl]thiophene-2-carboxamide]",4 nM
